pIC50: −log10 of the molar value. Values after ≈ are worked out from the molar mass of the structure shown.
Each compound was assayed on bacterial protein synthesis (aminoacylation/translation system) (assay: aminoacylation/translation (A/T) assay). Conditions: A/T assay, Table 1; read-out: IC50.
Format: biochemical

SMILES | pIC50
CN(CCO)c1ccc(CN2CCc3nc(-c4ccccn4)[nH]c(=O)c3C2)cc1 [Compound 323232] | 5.49
COc1cc2c(cc1CN1CCc3nc(-c4ccccn4)[nH]c(=O)c3C1)OCO2 [Compound 323233] | < 3.52
COc1ccc(CN2CCc3nc(-c4ccccn4)[nH]c(=O)c3C2)cc1Cn1cccn1 [Compound 323234] | 5.24
COc1ccc(CN2CCc3nc(-c4ccccn4)[nH]c(=O)c3C2)c(OC)c1O [Compound 323236] | 5.11
O=c1[nH]c(-c2ccccn2)nc2c1CN(Cc1cccc(F)c1F)CC2 [Compound 323237] | 5.55
CC(=O)Oc1ccc(CN2CCc3nc(-c4ccccn4)[nH]c(=O)c3C2)cc1 [Compound 323238] | 5.68

The compounds below were run on E. faecalis (assay: Broth microdilution MIC testing). Conditions: E. faecalis.
Format: cell-based, Enterococcus faecalis

SMILES | MIC E. fae [µg/mL]
CN(CCO)c1ccc(CN2CCc3nc(-c4ccccn4)[nH]c(=O)c3C2)cc1 [Compound 323232] | > 128
COc1cc2c(cc1CN1CCc3nc(-c4ccccn4)[nH]c(=O)c3C1)OCO2 [Compound 323233] | 128 (≈ 326 µM)
COc1ccc(CN2CCc3nc(-c4ccccn4)[nH]c(=O)c3C2)cc1Cn1cccn1 [Compound 323234] | 128 (≈ 299 µM)
COc1ccc(CN2CCc3nc(-c4ccccn4)[nH]c(=O)c3C2)c(OC)c1O [Compound 323236] | > 128
O=c1[nH]c(-c2ccccn2)nc2c1CN(Cc1cccc(F)c1F)CC2 [Compound 323237] | 64 (≈ 181 µM)
CC(=O)Oc1ccc(CN2CCc3nc(-c4ccccn4)[nH]c(=O)c3C2)cc1 [Compound 323238] | > 128

The compounds below were run on M. catarrhalis (assay: Broth microdilution MIC testing). Conditions: not given.
Format: cell-based, Moraxella catarrhalis

SMILES | MIC M. cat [µg/mL]
CN(CCO)c1ccc(CN2CCc3nc(-c4ccccn4)[nH]c(=O)c3C2)cc1 [Compound 323232] | 8 (≈ 20.4 µM)
COc1cc2c(cc1CN1CCc3nc(-c4ccccn4)[nH]c(=O)c3C1)OCO2 [Compound 323233] | 4 (≈ 10.2 µM)
COc1ccc(CN2CCc3nc(-c4ccccn4)[nH]c(=O)c3C2)cc1Cn1cccn1 [Compound 323234] | 16 (≈ 37.3 µM)
COc1ccc(CN2CCc3nc(-c4ccccn4)[nH]c(=O)c3C2)c(OC)c1O [Compound 323236] | > 128
O=c1[nH]c(-c2ccccn2)nc2c1CN(Cc1cccc(F)c1F)CC2 [Compound 323237] | 0.5 (≈ 1.41 µM)
CC(=O)Oc1ccc(CN2CCc3nc(-c4ccccn4)[nH]c(=O)c3C2)cc1 [Compound 323238] | 16 (≈ 42.5 µM)

Each compound was assayed on H. influenzae (assay: Broth microdilution MIC testing). Conditions: H. influenzae.
Format: cell-based, Haemophilus influenzae

SMILES | MIC H. flu [µg/mL]
CN(CCO)c1ccc(CN2CCc3nc(-c4ccccn4)[nH]c(=O)c3C2)cc1 [Compound 323232] | > 128
COc1cc2c(cc1CN1CCc3nc(-c4ccccn4)[nH]c(=O)c3C1)OCO2 [Compound 323233] | 16 (≈ 40.8 µM)
COc1ccc(CN2CCc3nc(-c4ccccn4)[nH]c(=O)c3C2)cc1Cn1cccn1 [Compound 323234] | 128 (≈ 299 µM)
COc1ccc(CN2CCc3nc(-c4ccccn4)[nH]c(=O)c3C2)c(OC)c1O [Compound 323236] | > 128
O=c1[nH]c(-c2ccccn2)nc2c1CN(Cc1cccc(F)c1F)CC2 [Compound 323237] | 4 (≈ 11.3 µM)
CC(=O)Oc1ccc(CN2CCc3nc(-c4ccccn4)[nH]c(=O)c3C2)cc1 [Compound 323238] | 32 (≈ 85 µM)

These compounds were tested on S. pneumoniae (assay: Broth microdilution MIC testing). Conditions: S. pneumoniae.
Format: cell-based, Streptococcus pneumoniae

SMILES | MIC S. pneumo [µg/mL]
CN(CCO)c1ccc(CN2CCc3nc(-c4ccccn4)[nH]c(=O)c3C2)cc1 [Compound 323232] | > 128
COc1cc2c(cc1CN1CCc3nc(-c4ccccn4)[nH]c(=O)c3C1)OCO2 [Compound 323233] | 32 (≈ 81.5 µM)
COc1ccc(CN2CCc3nc(-c4ccccn4)[nH]c(=O)c3C2)cc1Cn1cccn1 [Compound 323234] | 128 (≈ 299 µM)
COc1ccc(CN2CCc3nc(-c4ccccn4)[nH]c(=O)c3C2)c(OC)c1O [Compound 323236] | > 128
O=c1[nH]c(-c2ccccn2)nc2c1CN(Cc1cccc(F)c1F)CC2 [Compound 323237] | 8 (≈ 22.6 µM)
CC(=O)Oc1ccc(CN2CCc3nc(-c4ccccn4)[nH]c(=O)c3C2)cc1 [Compound 323238] | > 128

The compounds below were run on S. aureus (assay: Broth microdilution MIC testing). Conditions: S. aureus.
Format: cell-based, Staphylococcus aureus

SMILES | MIC S. aureus [µg/mL]
CN(CCO)c1ccc(CN2CCc3nc(-c4ccccn4)[nH]c(=O)c3C2)cc1 [Compound 323232] | > 128
COc1cc2c(cc1CN1CCc3nc(-c4ccccn4)[nH]c(=O)c3C1)OCO2 [Compound 323233] | > 128
COc1ccc(CN2CCc3nc(-c4ccccn4)[nH]c(=O)c3C2)cc1Cn1cccn1 [Compound 323234] | > 128
COc1ccc(CN2CCc3nc(-c4ccccn4)[nH]c(=O)c3C2)c(OC)c1O [Compound 323236] | > 128
O=c1[nH]c(-c2ccccn2)nc2c1CN(Cc1cccc(F)c1F)CC2 [Compound 323237] | 32 (≈ 90.3 µM)
CC(=O)Oc1ccc(CN2CCc3nc(-c4ccccn4)[nH]c(=O)c3C2)cc1 [Compound 323238] | > 128

What follows are compounds tested on E. coli tolC mutants (assay: Broth microdilution MIC testing). Conditions: E. coli tolC mutants.
Format: cell-based, Escherichia coli

SMILES | MIC E. coli tolC [µg/mL]
CN(CCO)c1ccc(CN2CCc3nc(-c4ccccn4)[nH]c(=O)c3C2)cc1 [Compound 323232] | 128 (≈ 327 µM)
COc1cc2c(cc1CN1CCc3nc(-c4ccccn4)[nH]c(=O)c3C1)OCO2 [Compound 323233] | 64 (≈ 163 µM)
COc1ccc(CN2CCc3nc(-c4ccccn4)[nH]c(=O)c3C2)cc1Cn1cccn1 [Compound 323234] | > 128
COc1ccc(CN2CCc3nc(-c4ccccn4)[nH]c(=O)c3C2)c(OC)c1O [Compound 323236] | > 128
O=c1[nH]c(-c2ccccn2)nc2c1CN(Cc1cccc(F)c1F)CC2 [Compound 323237] | 8 (≈ 22.6 µM)
CC(=O)Oc1ccc(CN2CCc3nc(-c4ccccn4)[nH]c(=O)c3C2)cc1 [Compound 323238] | > 128

Each compound was assayed on E. coli modified with PMBN (assay: Broth microdilution MIC testing). Conditions: E. coli modified with PMBN.
Format: cell-based, Escherichia coli

SMILES | MIC E. coli +PMBP [µg/mL]
CN(CCO)c1ccc(CN2CCc3nc(-c4ccccn4)[nH]c(=O)c3C2)cc1 [Compound 323232] | > 128
COc1cc2c(cc1CN1CCc3nc(-c4ccccn4)[nH]c(=O)c3C1)OCO2 [Compound 323233] | 64 (≈ 163 µM)
COc1ccc(CN2CCc3nc(-c4ccccn4)[nH]c(=O)c3C2)cc1Cn1cccn1 [Compound 323234] | 64 (≈ 149 µM)
COc1ccc(CN2CCc3nc(-c4ccccn4)[nH]c(=O)c3C2)c(OC)c1O [Compound 323236] | > 128
O=c1[nH]c(-c2ccccn2)nc2c1CN(Cc1cccc(F)c1F)CC2 [Compound 323237] | 16 (≈ 45.2 µM)
CC(=O)Oc1ccc(CN2CCc3nc(-c4ccccn4)[nH]c(=O)c3C2)cc1 [Compound 323238] | > 128

— paper PMC3353862
